Biological target: T1, 5-HT1A serotonin receptor (Rattus norvegicus, UniProt P19327)
T1 construct: following the procedure of Hall et al., J. Neurochem; 44 1685 (1985); from tissue
T1 sequence (P19327 1-422): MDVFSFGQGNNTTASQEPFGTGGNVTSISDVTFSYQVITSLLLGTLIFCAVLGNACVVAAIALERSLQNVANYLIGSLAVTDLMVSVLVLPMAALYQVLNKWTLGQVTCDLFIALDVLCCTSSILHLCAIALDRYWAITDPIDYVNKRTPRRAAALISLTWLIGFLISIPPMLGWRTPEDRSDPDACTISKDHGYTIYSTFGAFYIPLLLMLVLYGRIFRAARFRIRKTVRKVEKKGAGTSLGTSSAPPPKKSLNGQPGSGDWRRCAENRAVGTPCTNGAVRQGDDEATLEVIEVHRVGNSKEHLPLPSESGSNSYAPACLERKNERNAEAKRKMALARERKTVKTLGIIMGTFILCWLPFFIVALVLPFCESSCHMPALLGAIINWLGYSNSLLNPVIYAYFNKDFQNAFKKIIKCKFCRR
Assay: displacement of [^3 H] 8-OHDPAT (dipropylaminotetralin) from the 5-HT1A serotonin receptor (Hall et al.)
Settings: read-out: 5-HT1A Binding (IC50)
Description: High affinity for the serotonin 5-HT1A receptor for the compounds of this invention was established by testing them in accordance with the standard pharmacological test procedure in which the compound's ability to displace [^3 H] 8-OHDPAT (dipropylaminotetralin) from the 5-HT1A serotonin receptor was determined following the procedure of Hall et al., J. Neurochem. 44 1685 (1985).

Structure (SMILES) | IC50
C[C@H](CN1CCc2c(n(C)c3ccccc23)C1)N(C(=O)C1CCCCC1)c1ccccn1 [Example 3] | 78.1 nM
C[C@H](CN1CCc2c([nH]c3ccccc23)C1)N(C(=O)C1CCCCC1)c1ccccn1 [Example 1] | 34.9 nM
C[C@H](CN1CCc2c([nH]c3ccccc23)C1)N(C(=O)C12CC3CC(CC(C3)C1)C2)c1ccccn1 [Example 2] | 32.5 nM

From US5439915A, “Pyrido[3,4-B]indole carboxamide derivatives as serotonergic agents” (American Home Products Corporation, priority 1994, dated 1995)
